Legend:
[1] = system: NSCLC harboring atypical EGFR mutations; settings: Phase II KCSG-LU15-09; treatment-naive patients harboring atypical EGFR mutations; cited from earlier work
[2] = system: NSCLC tumors expressing EGFR G719S; test: PDX tumor growth, EGFR G719S model; assay type: in vivo, NSG mice; settings: mice harboring PDXs with mutations
Description: Dot plot of mutant/WT IC50 values of Ba/F3 cells expressing PACC mutations and treated with indicated classes of EGFR TKIs. […] Bars are representative of average mutant/WT IC50 values±SEM for each class of EGFR TKI and all PACC cell lines. p-values were determined by ANOVA analysis with unequal SD as determined by Brown-Forsythe test to determined differences in SD. Holm-Sidak's multiple comparisons test was used to determine differences between groups. […] Tumors were measured three times per week and symbols are average of tumor volumes±SEM. Mice were randomized into six groups. Mice received drug 5 days per week, and mice were euthanized at day 28 to harvest tumors. […] Heat map with unsupervised hierarchical clustering of log (Mutant/WT) ratios from Ba/F3 cells expressing indicated mutations after 72 hours of indicated drug treatment. Squares are representative of the average of n=3 replicates. […] Bars are representative of average mutant/WT IC50 values±SEM for each class of EGFR TKI and indicated cell lines. p-values were determined by ANOVA analysis with unequal SD as determined by Brown-Forsythe test to determined differences in SD. […]
Dot plot of percent change in tumor volume on day 28 of tumors described in FIG. 3C. […] Statistical differences were determined by ordinary one-way ANOVA with post-hoc Tukey's multiple comparisons test to determined differences between groups. […]

[3] = system: classical EGFR mutant NSCLC; settings: Phase III; treatment-naive patients; cited from earlier work

C=CC(=O)Nc1cc(Nc2nccc(-c3cn(C)c4ccccc34)n2)c(OC)cc1N(C)CCN(C)C [Osimertinib]
ORR [1]: 50%
mPFS [1]: 8.2 months
tumor sensitivity in vivo [2]: resistant
median overall survival (mOS) [3]: 38.6 months
median progression free survival (mPFS) [3]: 18.9 months
objective response rate (ORR) [3]: 80%
